Counter-ions that a name gives are not always drawn.

In this test the test system is production of IgE antibody. The test is described as follows: Evaluation of inhibitory effect on production of IgE antibody. It is filed as cell-based. The note with it: B-cell; test agent at a concentration of 10^−5 M; mouse (Balb/C) spleen B cells cultured with LPS then mouse IL-4; IgE in culture supernatant by ELISA. On the procedure:
Evaluation of Inhibitory Effect on Production of IgE Antibody
A spleen was enucleated from a mouse (Balb/C, male, aged 8 weeks) and shredded in 0.3% BSA/HBSS to prepare single cells by means of a 200-mesh screen. Further, the single cells were hemolyzed by 0.75% ammonium chloride-17 mM Tris solution to prepare a splenocyte suspension (1×10^7/ml) using RPMI 1640 medium/25 mM HPES/0.3% BSA. After the suspension was reacted with a mouse anti-mouse Thy-1.2 monoclonal antibody at 4° C. for 1 hour, the reaction mixture was centrifuged, and the sediment cells were suspended again (1×10^7/ml, RPMI/HPES/BAS). After the suspension was then reacted with a low-cytotoxic rabbit complement (product of Cedarlane Co.) at 37° C. for 1 hour, killed cells were removed by specific gravity centrifugation using lympholyte M (product of Cedarlane Co.) to obtain a B cell fraction as viably cells.
After B cells (10^5/0.2 ml/well) were cultured for a day together with LPS (E. coli 026:B6, product of DIFCO Co.) using a 96-well plate, mouse IL-4 (product of Genzyme Co.) was added to conduct culture further for 7 days.
Each test agent was added on the first day of the culture, and the amount of IgE in a culture supernatant was measured by ELISA, thereby calculating out the inhibitory effect of the agent on the production of an IgE antibody.

As for `O=C(/C=C/C=C/c1ccccc1)N1CCCN(C(=O)/C=C/C=C/c2ccccc2)CC1` [Example 1, 1,4-bis[5-phenylpenta-(2E,4E)-dienoyl]hexahydro-1,4-diazepine], the inhibition at 10 µM is 100%.
`COc1cc(/C=C/C=C/C(=O)N2CCN(C(=O)/C=C/C=C/c3cc(OC)c(OC)c(OC)c3)c3ncccc32)cc(OC)c1OC` [Example 42, 1,4-bis[5-(3,4,5-trimethoxyphenyl)-penta-(2E,4E)-dienoyl]-pyrido[2,3-b]-1,2,3,4-tetrahydropyrazine]: the inhibition at 10 µM stood at 95%.
The same measure for `COc1cc(/C=C/C=C/C(=O)N2CCN(C(=O)/C=C/C=C/c3cc(OC)c(OC)c(OC)c3)CC2)cc(OC)c1OC` [Example 29, 1,4-bis[5-(3,4,5-trimethoxyphenyl)-penta-(2E,4E)-dienoyl]piperazine]: 100%; for `COc1cc(/C=C/C=C/C(=O)N2CCN(C(=O)/C=C/C=C/c3cc(OC)c(OC)c(OC)c3)C(CN(C)C)C2)cc(OC)c1OC` (stereo not shown) [Example 36, 1,4-bis[5-(3,4,5-trimethoxyphenyl)-penta-(2E,4E)-dienoyl]-2-(N,N-dimethylaminomethyl)-piperazine hydrochloride]: 100%.
As to `O=C(/C=C/C=C/c1cccc2cccnc12)N1CCN(C(=O)/C=C/C=C/c2cccc3cccnc23)CC1` [Example 32, 1,4-bis[5-(8-quinolyl)penta-(2E,4E)-dienoyl]piperazine], the inhibition at 10 µM was found to be 85%.
The result for `O=C(/C=C/C=C/c1ccccn1)N1CCCN(C(=O)/C=C/C=C/c2ccccn2)CC1` [Example 19, 1,4-bis[5-(2-pyridyl)penta-(2E,4E)-dienoyl]hexahydro-1,4-diazepine] reads 20%.
In turn, `COc1cc(/C=C/C=C/C(=O)N2CCCN(C(=O)/C=C/C=C/c3cc(OC)c(OC)c(OC)c3)CC2)cc(OC)c1OC` [Example 17, 1,4-bis[5-(3,4,5-trimethoxyphenyl)-penta-(2E,4E)-dienoyl]hexahydro-1,4-diazepine] had an inhibition at 10 µM of 100%.
The result for `COc1cc(/C=C/C=C/C(=O)N2CCN(C(=O)/C=C/C=C/c3cc(OC)c(OC)c(OC)c3)C(C(=O)O)C2)cc(OC)c1OC` (stereo not shown) [Example 34, 1,4-bis[5-(3,4,5-trimethoxyphenyl)-penta-(2E,4E)-dienoyl]piperazine-2-carboxylic acid] reads 90%.
As to `O=C(/C=C/C=C/c1cccc2cccnc12)N1CCCN(C(=O)/C=C/C=C/c2cccc3cccnc23)CC1` [Example 25, 1,4-bis[5-(8-quinolyl)penta-(2E,4E)-dienoyl]hexahydro-1,4-diazepine], the inhibition at 10 µM stood at 100%.
The result for `COc1cc(/C=C/C=C/C(=O)N2CCN(C(=O)/C=C/C=C/c3cc(OC)c(OC)c(OC)c3)c3ccccc32)cc(OC)c1OC` [Example 41, 1,4-bis[5-(3,4,5-trimethoxyphenyl)-penta-(2E,4E)-dienoyl]-1,2,3,4-tetrahydroquinoxaline] reads 100%.

The values above are taken from US6828316B2, “Diamide compound and medicine containing the same” (Kowa Co., Ltd., priority 1996, dated 2004).
